Data published in US20260091051A1, “USE OF NMN FOR THE PREVENTION AND/OR TREATMENT OF PAIN, AND CORRESPONDING COMPOSITIONS” (Nuvamid SA, priority 2019, published 2026).
Where two headings read alike, the source gives them in different places.

Experiments:
[1] = tested on: acute cystitis induced by cyclophosphamide (CYP) in female Sprague-Dawley rats; details: for nociceptive scores (CYP-induced visceral pain) / nociceptive threshold (CYP-induced allodynia): 500 mg/kg p.o., 15 min before CYP 150 mg/kg i.p.; for nociceptive scores (CYP-induced visceral pain): vs carrier; for visceral pain induced by the CYP (conclusion): single oral treatment 500 mg/kg
Experimental: Animals: Sprague-Dawley female rats, 7 weeks old as of their birth
Acute Cystitis Induced by CYP: The CYP was injected via intraperitoneal injection at 150 mg/kg in a final volume of 5 ml/kg of saline solution.
The rats were placed in individual Plexiglas boxes with a metal wire mesh floor and allowed to adapt to the chamber for a period of at least 30 minutes prior to the commencement of any testing. Eight von Frey filaments with increasing levels of force viz 1, 2, 4, 6, 8, 10, 15, and 26 g were used. Each calibrated filament was applied 3 times to the lower abdominal area, near the bladder.
• Score 0=no response • Score 1=retraction of the abdomen • Score 2=stamping or changing of position • Score 3=wheezing or squealing, or abdominal curvature, or licking of the site stimulated with von Frey filaments
For each rat, the results were expressed as follows: • Nociceptive threshold: first von Frey force level for which the stimulus is perceived as being painful (the score ≥1 is obtained)=>lowered threshold=allodynia • Nociceptive score: % of the maximum response (total=9 for 3 combined applications) for each filament=>Overall response to pain
Experimental Groups (6 Rats Per Group): • Group 1: Carrier (5 ml/kg)+CYP • Group 2: NMN (500 mg/kg)+CYP • Group 3: Compound A (500 mg/kg)+CYP • Group 4: Compound B (500 mg/kg)+CYP

[2] = tested on: cyclophosphamide-induced cystitis (visceral nociceptive pain) in female Sprague-Dawley rats; experiment: Visceral pain model of cyclophosphamide-induced cystitis in rats, von Frey filaments (Example 1); format: in vivo, rat; details: for nociceptive threshold (threshold of tolerance to pain, allodynia): CYP-treated rats; for nociceptive threshold (threshold of tolerance to pain, allodynia) / nociceptive score: NMN 500 mg/kg or ibuprofen 300 mg/kg oral
Experimental: The effectiveness of the use of NMN according to the invention was evaluated in rats in a model of nociceptive pain. More precisely, the model used is a visceral pain model. The administration of cyclophosphamide (CYP) serves as the means to simulate cystitis in rats.
The positive control is ibuprofen, a non-steroidal anti-inflammatory drug frequently prescribed to relieve nociceptive pain. The negative control is the carrier for NMN and ibuprofen, that is to say, distilled water.
For this study, 7-week-old female Sprague-Dawley rats were divided into three groups, each group comprising of 6 rats: • a control group who received 5 ml of distilled water (carrier); • a group treated with NMN at 500 mg/kg; and • a group treated with ibuprofen at 300 mg/kg.
The NMN is in the form of zwitterion.
After 24 hours of adaptation, a test to measure the threshold of pain tolerance of each animal was carried out with von Frey filaments prior to the start of the study. This measurement prior to any exposure to a painful stimulus makes it possible to obtain the baseline pain tolerance threshold level in the animals and serves as a negative control.
Von Frey filaments are used as a device for measuring the sensitivity of the skin to touch. The use of von Frey filaments makes it possible to test for allodynia and hyperalgesia in rodents. Briefly put, each filament corresponds to a given force. The filaments are applied in ascending order of increasing force to the animal's skin. The rodents in effect have a reflex to withdraw when an unexpected contact occurs. The withdrawal in response to a force exerted on the rodent is indicative of the animal's threshold of tolerance to pain. The use of von Frey filaments is commonly implemented for measurement of pain in rodents (Deuis J R, Dvorakova L S and Vetter I (2017) Methods Used to Evaluate Pain Behaviors in Rodents. Front. Mol. Neurosci. 10:284.).
In the present study, eight filaments in ascending order of increasing force, of 1 g, 2 g, 4 g, 6 g, 8 g, 10 g, 15 g, and 26 g, were used and applied three times each to the animal's abdomen, near the bladder. The animal's response was assessed as follows: • score 0: no response • score 1: retraction of the abdomen • score 2: stamping or changing of position of the animal • score 3: twitching, or curving or rounding of the abdomen, or licking of the area stimulated by the von Frey filament.
For each rat, the results are expressed as follows: • nociceptive threshold: first force level at which a response from the animal is observed (response score greater than or equal to 1). This indicates the lowest threshold of tolerance to pain for measuring allodynia; • nociceptive score: percentage of the maximum response for each filament. This indicates the overall pain response.
The animals of each of the groups receive either the carrier, or NMN at 500 mg/kg, or ibuprofen at 300 mg/kg administered via the oral route. After administration of the compounds to be tested (carrier, NMN, or ibuprofen), cyclophosphamide is injected via the intraperitoneal route into each rat. The cyclophosphamide induces strong inflammation in the bladder and simulates a pain induced by a urinary tract infection such as cystitis.
The test with the von Frey filaments is repeated at 2 hr and then subsequently at 4 hr after injection of the cyclophosphamide in order to measure the pain response of the animals.
The results were analysed by a one-way analysis of variance (ie one-way ANOVA) test supplemented by a Dunnett's test or by a two-way ANOVA analysis. With regard to statistical significance, * signifies that p<0.05, ** signifies that p<0.01, and *** signifies that p<0.001, as compared to the group treated with the carrier.

[3] = T=2 h after CYP injection, vs carrier (FIG. 3B)
[4] = T=4 h after CYP injection, vs carrier (FIG. 3C)

Row | Compound | nociceptive scores (CYP-induced visceral pain) ([1]; +2 hr) | nociceptive threshold (CYP-induced allodynia) ([1]; +2 hr, vs carrier (FIG. 6A)) | nociceptive scores (CYP-induced visceral pain) ([1]; +4 hr) | nociceptive threshold (CYP-induced allodynia) ([1]; +4 hr, vs carrier (FIG. 6B)) | visceral pain induced by the CYP (conclusion) ([1]; +2 hr) | visceral pain induced by the CYP (conclusion) ([1]; +4 hr) | nociceptive threshold (threshold of tolerance to pain, allodynia) ([2]; T0, vs carrier (FIG. 3A)) | nociceptive threshold (threshold of tolerance to pain, allodynia) [2, 3] | nociceptive threshold (threshold of tolerance to pain, allodynia) [2, 4] | nociceptive score ([2]; 2 hours after CYP (FIG. 4B)) | nociceptive score ([2]; 4 hours after CYP (FIG. 4C)) | nociceptive threshold after CYP vs baseline response ([1]; CYP 150 mg/kg i.p., carrier-treated group, 2 hours and 4 hours post injection (FIG. 2A)) | nociceptive scores after CYP vs baseline response ([1]; CYP 150 mg/kg i.p., carrier-treated group, 2 hours and 4 hours post injection (FIG. 2B)) | pain tolerance threshold (nociceptive threshold) after cyclophosphamide ([2]; carrier-treated rats, intraperitoneal cyclophosphamide, 10 g before administration (FIG. 1B)) [g]
1 | NC(=O)c1ccc[n+]([C@H]2O[C@H](COP(=O)([O-])O)[C@@H](O)[C@H]2O)c1 [Compound A, alpha nicotinamide mononucleotide] | decrease in the nociceptive scores | increase in the nociceptive threshold | only achieved the level of statistical significance at +4 h | significant at +4 hr | reduced the visceral pain | only achieving the level of significance at +4 hr |  |  |  |  |  |  |  | 
2 | NC(=O)c1ccc[n+]([C@@H]2O[C@H](COP(=O)([O-])O)[C@@H](O)[C@H]2O)c1 [NMN, nicotinamide mononucleotide] | significant decrease in the nociceptive scores | slight increase in the nociceptive threshold | significant decrease in the nociceptive scores | slight increase in the nociceptive threshold | relieved the visceral pain | relieved the visceral pain | increase the response threshold to nociceptive pain significantly | increase the response threshold to nociceptive pain significantly | increase the response threshold to nociceptive pain significantly | reducing the nociceptive score | reducing the nociceptive score |  |  | 
3 | O=P1(N(CCCl)CCCl)NCCCO1 (stereo not shown) [cyclophosphamide, reference compound] |  |  |  |  |  |  |  |  |  |  |  | significant decrease in the nociceptive threshold | significant increase in the nociceptive scores | 3
4 | CC(C)Cc1ccc(C(C)C(=O)O)cc1 (stereo not shown) [ibuprofen] |  |  |  |  |  |  | significantly increase the threshold of tolerance to pain | significantly increase the threshold of tolerance to pain | significantly increase the threshold of tolerance to pain | reducing the nociceptive score | reducing the nociceptive score |  |  | 
5 | di-NMN [Compound B] | no effect was observed | no effect | significant decrease in the nociceptive scores | significant increase in the nociceptive threshold | no beneficial effect | significant anti-nociceptive activity |  |  |  |  |  |  |  | 
